According to US6414038B2, “Hydroxystilbenes for reducing/inhibiting protein glycation and combating skin aging” (Societe L'Oreal, priority 1999, dated 2002):
Where two headings read alike, the source gives them in different places.

Target: bovine serum albumin (Bos taurus, UniProt P02769)
Assay: Inhibition of glycation of bovine serum albumin by D-ribose (AGE fluorescence)
Format: biochemical
Conditions: for inhibition at 1 µM / inhibition at 10 µM: read-out: % inhibition (of glycation)
Description: A solution of bovine serum albumin at 1 mg/ml in solution in phosphate buffered saline (PBS) was incubated at 37° C. for 14 days in the presence or in the absence of D-ribose at the concentration of […], of 3,3′,5,5′-tetrahydroxystilbene or of resveratrol, each at the concentrations of 1 μM and 10 μM.
The glycation was evaluated by measuring the fluorescence of the AGEs at λem.=440 nm emitted by each sample after excitation at λex.=370 nm.
The inhibition of glycation was visualized by the reduction in the fluorescence compared with the sample treated with the sugar alone.

Sequence of bovine serum albumin (P02769 25-607): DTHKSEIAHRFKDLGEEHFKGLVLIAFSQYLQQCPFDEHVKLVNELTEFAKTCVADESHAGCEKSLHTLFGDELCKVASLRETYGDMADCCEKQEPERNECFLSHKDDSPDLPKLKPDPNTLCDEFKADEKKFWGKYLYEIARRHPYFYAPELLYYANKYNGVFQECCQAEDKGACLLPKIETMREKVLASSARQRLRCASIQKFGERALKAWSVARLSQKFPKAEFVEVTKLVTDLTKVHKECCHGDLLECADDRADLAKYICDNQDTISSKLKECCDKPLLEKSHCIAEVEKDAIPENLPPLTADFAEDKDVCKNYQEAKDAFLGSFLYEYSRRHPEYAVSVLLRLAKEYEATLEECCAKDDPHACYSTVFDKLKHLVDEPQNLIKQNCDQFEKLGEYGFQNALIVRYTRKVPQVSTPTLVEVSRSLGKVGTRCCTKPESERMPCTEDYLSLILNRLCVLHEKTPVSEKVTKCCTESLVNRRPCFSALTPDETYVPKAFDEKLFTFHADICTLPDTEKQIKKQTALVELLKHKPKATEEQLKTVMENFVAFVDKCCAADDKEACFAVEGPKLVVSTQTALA

| SMILES | antiglycation effect relative to resveratrol (at the concentration of 10 μM) | antiglycation effect (in words) (from the concentration of 1 μM) | inhibition at 1 µM | inhibition at 10 µM | inhibition at 1 µM (compound 1 μM, BSA 1 mg/ml in PBS, D-ribose 10 μM, 37° C., 14 days, AGE fluorescence λex 370 nm/λem 440 nm vs sugar alone) | inhibition at 10 µM (compound 10 μM, BSA 1 mg/ml in PBS, D-ribose 10 μM, 37° C., 14 days, AGE fluorescence λex 370 nm/λem 440 nm vs sugar alone) |
| --- | --- | --- | --- | --- | --- | --- |
| Oc1cc(O)cc(/C=C/c2cc(O)cc(O)c2)c1 [A, 3,3′,5,5′-tetrahydroxystilbene] | ~2 times | advantageous antiglycation effect | 7.1% | 14.3% | – | – |
| Oc1ccc(C=Cc2cc(O)cc(O)c2)cc1 [B, resveratrol, reference compound] | – | – | – | – | 7.1% | 7.1% |
